This assay has as its system 5/6 Nephrectomy induced chronic kidney disease (CKD). Put plainly: 5/6 Nephrectomy induced chronic kidney disease in rat. Type of assay: in vivo, rat (male Wistar). The settings on record: 5/6 nephrectomy rats, mean; for Serum Analysis BUN / Serum Analysis Creatinine / Serum Analysis IL-6 / Urine Analysis Glomerular Filtration Rate: daily p.o. treatment for 10 weeks, end of 10th week; for % Decreased Creatinine / % Decreased in BUN / % Decreased in IL-6: serum; for % Decreased Creatinine / % Decreased in BUN / % Decreased in IL-6 / % Increased GFR: daily p.o. 10 weeks; for % Increased GFR: urine analysis. As for the experimental part:
Screening effect against 5/6 Nephrectomy induced chronic kidney disease (CKD) of synergistic combination or composition/formulation comprising PEA and other natural ingredients in rat. The following trials were carried out:
54 male Wistar rats (Rat Rattus) (6 per group) were maintained in animal house in a light/dark atmosphere based on a 12 hour cycle having temperature and relative humidity in the range of 25±2° C. and 30-70% respectively. To maintain the appropriate conditions, temperature and relative humidity were recorded three times daily. During complete experiment, animals were supplied with the standard certified rat pellet feed (manufactured by Keval sales corporation, Vadodara) and drinking water treated by the reverse osmosis ad libitum.
In order to evaluate the activity against chronic kidney disease, fifty four (54) male rats were screened and divided in to nine groups. For a comparative analysis, groups were divided as sham control (Group 1), disease control (Group 2), treatment groups with individual components (Group 3, Group 4, Group 5 and Group 6 as PEA, Cholecalciferol, Quercetin and Resveratrol respectively), test composition formulation of the present invention (Group 7 and Group 8 as PEA combinations) and reference standard drug (Group 9).
The animals under consideration were examined for a study period of 10 weeks and two-stage surgical procedure for kidney ligation and removal were performed.
Stage one: A ventral midline incision into the abdomen was made to expose the animal's left kidney, and the organ was freed from the surrounding tissue. A piece of suture was placed and ligated around each pole of the kidney at its one-third position. The one-third kidney on each pole was excised beyond the ligatures and the abdominal incision was closed.
Stage two: This procedure was performed 5-7 days after stage one. The animals were placed in ventral recumbancy and an incision was made parallel to the midline. The abdominal cavity was entered and the right kidney was made free from the surrounding tissue. The kidney was gently pulled out from the incision, and the adrenal gland was freed and replaced into the abdominal cavity. The renal blood vessels and the ureter were ligated or cauterized. The kidney was then removed by transecting the vessels and ureter just distal to the ligature or cauterized section. The skin incision was closed with wound clips.
Treatment. All treatment groups were treated on daily basis for 10 weeks after stage two of surgery. After completion of the study at the end of 10th week, each group was analyzed in terms of the evaluating parameters such as blood collection, biochemistry analysis, urine analysis and histopathology of kidney.

Regarding `C=C1CC[C@H](O)C/C1=C/C=C1\CCC[C@]2(C)[C@@H]([C@H](C)CCCC(C)C)CC[C@@H]12` [Cholecalciferol], the “Serum Analysis BUN” value is 75.63 mg/dL, the “Serum Analysis Creatinine” value was 1.40 mg/dL, the “Serum Analysis IL-6” value came out at 178.45 pg/mL and the “Urine Analysis Glomerular Filtration Rate” value came out at 5.65 mL/min/kg. Also, the “% Decreased Creatinine” value worked out at 7.02%, the “% Decreased in BUN” value worked out at 8.05%, the “% Decreased in IL-6” value turned out to be 1.22% and the “% Increased GFR” value is on record as 2.73%.

As to `CCCCc1nc(Cl)c(CO)n1Cc1ccc(-c2ccccc2-c2nn[nH]n2)cc1` [Losartan], the “Serum Analysis BUN” value was found to be 52.81 mg/dL, the “Serum Analysis Creatinine” value worked out at 1.22 mg/dL, the “Serum Analysis IL-6” value was 141.67 pg/mL and the “Urine Analysis Glomerular Filtration Rate” value stood at 6.80 mL/min/kg. The “% Decreased Creatinine” value came out at 18.98%, the “% Decreased in BUN” value was 35.80%, the “% Decreased in IL-6” value was found to be 21.58% and the “% Increased GFR” value is 23.64%.

As to `CCCCCCCCCCCCCCCC(=O)NCCO` [PEA, Palmitoylethanolamide], the “Serum Analysis BUN” value is 60.98 mg/dL, the “Serum Analysis Creatinine” value is 1.12 mg/dL, the “Serum Analysis IL-6” value was 162.18 pg/mL and the “Urine Analysis Glomerular Filtration Rate” value was 6.50 mL/min/kg. Moreover, the “% Decreased Creatinine” value is 25.63%, the “% Decreased in BUN” value turned out to be 25.87%, the “% Decreased in IL-6” value worked out at 10.22% and the “% Increased GFR” value is given as 18.18%.

Turning to `O=c1c(O)c(-c2ccc(O)c(O)c2)oc2cc(O)cc(O)c12` [Quercetin], the “Serum Analysis BUN” value amounted to 76.62 mg/dL, the “Serum Analysis Creatinine” value is 1.44 mg/dL, the “Serum Analysis IL-6” value came out at 175.15 pg/mL and the “Urine Analysis Glomerular Filtration Rate” value was 5.64 mL/min/kg. The “% Decreased Creatinine” value turned out to be 4.02%, the “% Decreased in BUN” value was found to be 6.85%, the “% Decreased in IL-6” value is recorded as 3.04% and the “% Increased GFR” value was determined as 2.55%.

For the compound `Oc1ccc(C=Cc2cc(O)cc(O)c2)cc1` [Resveratrol], the “Serum Analysis BUN” value was 74.51 mg/dL, the “Serum Analysis Creatinine” value worked out at 1.41 mg/dL, the “Serum Analysis IL-6” value worked out at 174.42 pg/mL and the “Urine Analysis Glomerular Filtration Rate” value was 5.75 mL/min/kg. Besides, the “% Decreased Creatinine” value is on record as 6.30%, the “% Decreased in BUN” value stood at 9.42%, the “% Decreased in IL-6” value came out at 3.45% and the “% Increased GFR” value worked out at 4.55%.

For the origin of these results see patent US10973782B2, “Pharmaceutical composition for improving or preventing progression of chronic kidney disease” (Frimline Private Limited, priority 2017, dated 2021).
